From ChEMBL document CHEMBL1153171, “Coumarins as novel 17beta-hydroxysteroid dehydrogenase type 3 inhibitors for potential treatment of prostate cancer” (Bioorg Med Chem Lett, 2010)
pIC50: −log10 of the molar value.

Experiments:
[1] = target: T1, 17-beta-hydroxysteroid dehydrogenase type 3 (Homo sapiens, UniProt P37058); test: Inhibition of human 17beta-HSD3 expressed in HeLa cells; assay type: cell-based
T1 sequence (P37058 whole entry): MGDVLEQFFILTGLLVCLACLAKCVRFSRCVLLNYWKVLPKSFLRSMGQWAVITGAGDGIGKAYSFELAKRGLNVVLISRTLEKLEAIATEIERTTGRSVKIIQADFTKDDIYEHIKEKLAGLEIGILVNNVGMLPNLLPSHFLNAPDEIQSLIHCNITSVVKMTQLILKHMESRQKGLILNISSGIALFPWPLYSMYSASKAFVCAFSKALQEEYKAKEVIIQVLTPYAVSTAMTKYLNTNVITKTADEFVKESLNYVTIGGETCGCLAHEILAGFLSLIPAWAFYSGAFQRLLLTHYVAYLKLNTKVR

[2] = target: T2, Androgen receptor (Homo sapiens, UniProt P10275); test: Antagonist activity at AR by reporter gene assay; assay type: functional; conditions: for pIC50: read-out: IC50
T2 sequence (P10275 whole entry): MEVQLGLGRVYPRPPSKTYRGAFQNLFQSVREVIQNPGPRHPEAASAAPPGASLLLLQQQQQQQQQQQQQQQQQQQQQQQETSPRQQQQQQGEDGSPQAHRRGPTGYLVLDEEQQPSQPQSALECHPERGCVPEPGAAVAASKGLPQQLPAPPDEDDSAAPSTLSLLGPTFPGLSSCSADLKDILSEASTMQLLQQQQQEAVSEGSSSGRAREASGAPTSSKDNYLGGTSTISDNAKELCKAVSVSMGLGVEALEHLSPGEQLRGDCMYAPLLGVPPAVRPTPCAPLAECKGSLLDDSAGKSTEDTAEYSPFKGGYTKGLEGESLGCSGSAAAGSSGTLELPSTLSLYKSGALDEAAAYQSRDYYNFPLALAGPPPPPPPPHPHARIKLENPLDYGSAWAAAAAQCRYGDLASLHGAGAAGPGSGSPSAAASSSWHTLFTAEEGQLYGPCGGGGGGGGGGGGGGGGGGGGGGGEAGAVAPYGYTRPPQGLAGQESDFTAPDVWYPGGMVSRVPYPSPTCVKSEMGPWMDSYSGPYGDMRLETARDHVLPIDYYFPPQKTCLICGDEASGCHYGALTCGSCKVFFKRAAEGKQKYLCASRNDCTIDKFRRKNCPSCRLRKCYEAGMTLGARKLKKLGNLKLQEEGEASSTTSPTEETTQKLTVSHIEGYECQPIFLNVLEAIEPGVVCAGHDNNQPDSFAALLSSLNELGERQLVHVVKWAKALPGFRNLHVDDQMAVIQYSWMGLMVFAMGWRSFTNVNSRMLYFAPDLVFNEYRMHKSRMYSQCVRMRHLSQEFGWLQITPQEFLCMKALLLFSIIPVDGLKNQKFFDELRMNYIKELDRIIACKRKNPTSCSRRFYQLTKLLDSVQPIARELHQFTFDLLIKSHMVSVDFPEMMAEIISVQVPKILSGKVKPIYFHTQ

[3] = target: T3, Estrogen receptor (Homo sapiens, UniProt P03372); test: Agonist activity at ER by reporter gene assay; assay type: functional; conditions: for pIC50: read-out: IC50
T3 sequence (P03372 whole entry): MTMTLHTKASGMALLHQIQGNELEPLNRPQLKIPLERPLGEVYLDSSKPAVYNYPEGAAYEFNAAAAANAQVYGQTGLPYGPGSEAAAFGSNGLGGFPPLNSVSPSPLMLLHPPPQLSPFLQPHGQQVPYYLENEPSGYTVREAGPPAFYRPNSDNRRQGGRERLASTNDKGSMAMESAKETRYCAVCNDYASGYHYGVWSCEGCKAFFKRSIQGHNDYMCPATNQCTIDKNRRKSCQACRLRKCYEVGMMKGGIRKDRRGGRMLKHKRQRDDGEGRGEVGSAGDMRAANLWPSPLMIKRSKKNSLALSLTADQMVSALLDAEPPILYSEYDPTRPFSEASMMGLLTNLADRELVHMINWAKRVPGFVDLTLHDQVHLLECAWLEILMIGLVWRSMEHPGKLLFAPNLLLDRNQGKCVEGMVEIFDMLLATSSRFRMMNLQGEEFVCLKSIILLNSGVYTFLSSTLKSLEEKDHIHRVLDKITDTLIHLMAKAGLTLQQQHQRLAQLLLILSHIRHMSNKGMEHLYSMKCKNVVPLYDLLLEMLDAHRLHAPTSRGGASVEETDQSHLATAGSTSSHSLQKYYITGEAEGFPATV

[4] = target: T4, 17-beta-hydroxysteroid dehydrogenase type 1 (Homo sapiens, UniProt P14061); test: Inhibition of 17beta-HSD1 by human cell based assay
T4 sequence (P14061 whole entry): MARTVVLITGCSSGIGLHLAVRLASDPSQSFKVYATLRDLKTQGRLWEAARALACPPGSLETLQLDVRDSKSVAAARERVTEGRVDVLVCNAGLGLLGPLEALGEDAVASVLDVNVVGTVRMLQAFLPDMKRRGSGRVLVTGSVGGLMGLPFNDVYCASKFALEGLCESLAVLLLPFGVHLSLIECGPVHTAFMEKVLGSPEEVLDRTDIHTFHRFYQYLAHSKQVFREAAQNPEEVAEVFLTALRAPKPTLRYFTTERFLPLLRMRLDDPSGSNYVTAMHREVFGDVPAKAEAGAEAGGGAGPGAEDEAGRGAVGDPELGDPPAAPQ

[5] = target: T2, Androgen receptor; test: Agonist activity at AR by reporter gene assay; assay type: functional
[6] = target: T3, Estrogen receptor; test: Antagonist activity at ER by reporter gene assay; assay type: functional
[7] = target: T5, Glucocorticoid receptor (Homo sapiens, UniProt P04150); test: Agonist activity at GR by reporter gene assay; assay type: functional
T5 sequence (P04150 whole entry): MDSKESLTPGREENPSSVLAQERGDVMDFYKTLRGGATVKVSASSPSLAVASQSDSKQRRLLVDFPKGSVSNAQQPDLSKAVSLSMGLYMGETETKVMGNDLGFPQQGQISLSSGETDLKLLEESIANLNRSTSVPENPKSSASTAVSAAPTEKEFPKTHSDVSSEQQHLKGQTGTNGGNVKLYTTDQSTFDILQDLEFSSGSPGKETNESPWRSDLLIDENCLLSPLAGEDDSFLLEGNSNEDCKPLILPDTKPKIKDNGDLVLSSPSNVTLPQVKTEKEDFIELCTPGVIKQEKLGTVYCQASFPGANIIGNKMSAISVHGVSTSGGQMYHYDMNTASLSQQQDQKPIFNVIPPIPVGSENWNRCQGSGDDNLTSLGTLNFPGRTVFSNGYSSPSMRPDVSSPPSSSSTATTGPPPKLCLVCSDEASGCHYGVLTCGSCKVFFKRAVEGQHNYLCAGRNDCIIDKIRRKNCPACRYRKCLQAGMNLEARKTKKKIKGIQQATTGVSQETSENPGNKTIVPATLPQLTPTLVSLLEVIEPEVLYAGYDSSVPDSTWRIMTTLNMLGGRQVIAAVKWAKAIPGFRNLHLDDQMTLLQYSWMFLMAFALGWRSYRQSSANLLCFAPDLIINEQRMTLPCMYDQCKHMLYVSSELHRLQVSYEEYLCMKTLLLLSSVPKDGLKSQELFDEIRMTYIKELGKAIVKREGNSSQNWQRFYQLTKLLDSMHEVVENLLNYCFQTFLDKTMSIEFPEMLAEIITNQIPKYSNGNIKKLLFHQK

[8] = target: T5, Glucocorticoid receptor; test: Antagonist activity at GR by reporter gene assay; assay type: functional
[9] = target: T6, 17-beta-hydroxysteroid dehydrogenase type 2 (Homo sapiens, UniProt P37059); test: Inhibition of 17beta-HSD2 by human cell based assay
T6 sequence (P37059 whole entry): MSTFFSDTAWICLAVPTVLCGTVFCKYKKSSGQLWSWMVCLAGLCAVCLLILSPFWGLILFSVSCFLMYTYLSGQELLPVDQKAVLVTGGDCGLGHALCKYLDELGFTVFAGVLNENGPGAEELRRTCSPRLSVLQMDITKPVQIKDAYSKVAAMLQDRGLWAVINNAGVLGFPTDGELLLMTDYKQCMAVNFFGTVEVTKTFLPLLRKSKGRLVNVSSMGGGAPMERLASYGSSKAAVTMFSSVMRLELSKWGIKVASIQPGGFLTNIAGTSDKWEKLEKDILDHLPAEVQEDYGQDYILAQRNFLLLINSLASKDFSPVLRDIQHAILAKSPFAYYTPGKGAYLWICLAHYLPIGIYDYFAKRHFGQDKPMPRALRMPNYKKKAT

pIC50 [1] | Compound | further results
8.52 | O=c1cc(CSc2ccccn2)c2ccc(O)cc2o1 | –
7.02 | O=c1cc(CSC2NCCS2)c2ccc(O)cc2o1 (stereo not given) | –
6.70 | O=c1cc(CSc2nncs2)c2ccc(O)cc2o1 | –
5.30 | COCc1cc(=O)oc2cc(O)ccc12 | –
6.49 | O=c1oc2cc(O)ccc2c(C(F)(F)F)c1CSc1ccccn1 | –
7.00 | Cc1c(Cl)c(=O)oc2cc(O)ccc12 | –
6.38 | O=c1cc(CSc2cccs2)c2ccc(O)cc2o1 | –
5.00 | O=c1cc(Cc2ccccc2)c2ccc(O)cc2o1 | –
6.00 | O=c1cc(-c2ccccc2)c2ccc(O)cc2o1 | –
6.64 | O=c1cc(CSc2ccc(C(F)(F)F)cn2)c2ccc(O)cc2o1 | –
5.00 | O=c1cc(COc2ccccc2)c2ccc(O)cc2o1 | –
6.00 | Cc1cc(=O)oc2cc(O)ccc12 [HYMECROMONE] | –
7.04 | Cn1ccnc1SCc1cc(=O)oc2cc(O)ccc12 | –
7.03 | O=c1cc(CSc2ccccc2)c2ccc(O)cc2o1 | –
7.23 | CCCc1cc(=O)oc2cc(O)ccc12 | –
7.33 | Cc1cccc(SCc2c(Cl)c(=O)oc3cc(O)ccc23)n1 | –
6.00 | Cc1cccc(OCCc2cc(=O)oc3cc(O)ccc23)n1 | –
6.00 | Cc1c(C#N)c(=O)oc2cc(O)ccc12 | –

pIC50 [1] | Compound | further results
6.00 | O=c1cc(CSc2ncccn2)c2ccc(O)cc2o1 | –
7.06 | O=c1cc(CSc2ccc([N+](=O)[O-])cn2)c2ccc(O)cc2o1 | –
5.40 | O=c1cc(CNc2ccccc2)c2ccc(O)cc2o1 | –
5.22 | CN(Cc1cc(=O)oc2cc(O)ccc12)c1ccccc1 | –
6.68 | Cc1c(C)c2ccc(O)cc2oc1=O | –
8.00 | O=c1cc(CSc2nccs2)c2ccc(O)cc2o1 | –
6.00 | Cc1c(F)c(=O)oc2cc(O)ccc12 | –
7.57 | Cc1cccc(SCc2c(F)c(=O)oc3cc(O)ccc23)n1 | –
7.00 | CCc1cc(=O)oc2cc(O)ccc12 | –
8.10 | Cc1cccc(CCc2cc(=O)oc3cc(O)ccc23)n1 | IC50 [2]: Not Active; IC50 [3]: Not Active; IC50 [4]: Not Active; IC50 [5]: Not Active; IC50 [6]: Not Active; IC50 [7]: Not Active; IC50 [8]: Not Active; IC50 [9]: Not Active
7.52 | O=c1oc2cc(O)ccc2c(C(F)(F)F)c1Cc1ccccc1 | pIC50 [2]: 5.22; pIC50 [3]: 6.00; IC50 [4]: Not Active; IC50 [5]: Not Active; IC50 [6]: Not Active; IC50 [7]: Not Active; IC50 [8]: Not Active; IC50 [9]: Not Active
6.70 | Cc1c(Cc2ccccc2)c(=O)oc2cc(O)ccc12 | –
5.30 | O=c1cc(CSc2ccncc2)c2ccc(O)cc2o1 | –
8.82 | Cc1cccc(SCc2cc(=O)oc3cc(O)ccc23)n1 | pIC50 [2]: 4.30; pIC50 [3]: 4.30; IC50 [4]: Not Active; IC50 [5]: Not Active; IC50 [6]: Not Active; IC50 [7]: Not Active; IC50 [8]: Not Active; IC50 [9]: Not Active
6.62 | CCCc1c(C)c2ccc(O)cc2oc1=O | –
6.72 | O=c1cc(C(F)(F)F)c2ccc(O)cc2o1 | –
7.70 | O=c1cc(CCc2ccccc2)c2ccc(O)cc2o1 | –
6.00 | Cc1cc2ccc(O)cc2oc1=O | –
